Values after ≈ are worked out from the molar mass of the structure shown.
Assays:
[1] = system: M. marinum-tdTomato yolk-infected zebrafish embryos; settings: in vivo
M. tuberculosis H37Rv = assay: microbe, parasite or virus in culture; type: cell-based; settings: Mycobacterium tuberculosis, read-out: MIC90 Mtb in vitro; for IC90: 144 h
[2] = system: Mtb-infected THP-1 macrophages; assay: microbe, parasite or virus in culture; type: cell-based, Mycobacterium tuberculosis; settings: for MIC50 / IC50: Mycobacterium tuberculosis, read-out: MIC50 Mtb ex vivo; for IC50: THP-1, 96 h
M. marinum M^USA = assay: microbe, parasite or virus in culture; type: cell-based; settings: Mycobacterium marinum, read-out: MIC90 Mmar in vitro

Compound	Bacterial load (integrated red fluorescence) in infected embryos vs DMSO [1]	MIC90 (M. tuberculosis H37Rv) [µM]	MIC50 [2] [µM]	further results
CC(C)=CCC/C(C)=C/CNCCNC1C2CC3CC(C2)CC1C3 (stereo not drawn) [SQ109]	significant reduction of the bacterial signal			
CC12CC3CC(C)(C1)CC(C(=O)Nc1nc4ccccc4s1)(C3)C2 [TBA8]		15.8 ± 7.5 (≈ 5.38 µg/mL)	6.9 ± 8.7 (≈ 2.35 µg/mL)	
COc1ccc(Cc2nn3c(-c4ccccc4)nnc3s2)cc1 [TBA29]		3.6 ± 0.9 (≈ 1.16 µg/mL)	6.1 ± 4 (≈ 1.97 µg/mL)	
CC(C)C(=O)Nc1ccc(C(=O)Oc2ccccc2)c(O)c1 [TBA32]		2 ± 0.5 (≈ 0.599 µg/mL)	9.6 ± 16.6 (≈ 2.87 µg/mL)	
O=C(Nc1ccc(Cl)cc1)NC1CC2CCC1C2 (stereo not drawn) [TBA37]		13.6 ± 4.3 (≈ 3.6 µg/mL)	5.5 ± 3.6 (≈ 1.46 µg/mL)	
Cc1ccc(-c2nnc3sc(Cc4ccccc4)nn23)cc1 [TBA38]		9.9 ± 1.9 (≈ 3.03 µg/mL)	5.6 ± 3.4 (≈ 1.72 µg/mL)	
Cc1ccc(NC(=O)C23CC4CC(CC2C4)C3)cc1 [TBA52]				IC90 (M. tuberculosis H37Rv): 9.6 ± 5.3 µM; IC50 [2]: 4.2 ± 6 µM
COc1cccc(OCCNC(=O)c2cc([N+](=O)[O-])cc([N+](=O)[O-])c2)c1 [TBA57]		1.7 ± 3.1 (≈ 0.614 µg/mL)	1.6 ± 0.7 (≈ 0.578 µg/mL)	
O=C(OCC(=O)c1c[nH]c2ccccc12)c1ccc([N+](=O)[O-])s1 [TBA61]		2.2 ± 0.2 (≈ 0.727 µg/mL)	> 30	Intracellular activity (bacterial viability, macrophage protection) [2]: did not show activity
COc1ccc(CNC(=O)c2c(C)nc3ccccn23)cc1 [TBA117]		4 ± 1.4 (≈ 1.18 µg/mL)	0.4 ± 0.1 (≈ 0.118 µg/mL)	
Cc1nc2ccccn2c1C(=O)NCc1ccc2c(c1)OCO2 [TBA120]		5.9 ± 2.6 (≈ 1.83 µg/mL)	0.5 ± 0.2 (≈ 0.155 µg/mL)	
CC(C)(C)c1ccc(Cn2cnc([N+](=O)[O-])n2)cc1 [TBA139]				IC90 (M. tuberculosis H37Rv): 11.8 ± 12.4 µM; IC50 [2]: 4.6 ± 7.1 µM
O=C(Nc1ccc(F)cc1)NC1CCCCCCC1 [TBA145]		19 ± 5.7 (≈ 5.02 µg/mL)	8 ± 14.2 (≈ 2.11 µg/mL)	
O=c1c2ccccc2oc2nc3n(c(=O)c12)CCCS3 [TBA161-A, 3,4-dihydro-chromeno[2′,3′:4,5]pyrimido[2,1-b][1,3]thiazine-6,7-dione]		3.8 ± 3.1 (≈ 1.09 µg/mL)	1.1 ± 0.9 (≈ 0.315 µg/mL)	MIC90 (M. marinum M^USA): 2.8 ± 1.7 µM (≈ 0.802 µg/mL)
CCc1cccc2c(C(=O)COC(=O)c3ccc([N+](=O)[O-])s3)c[nH]c12 [TBA172]		2.4 ± 0.4 (≈ 0.86 µg/mL)	> 30	Intracellular activity (bacterial viability, macrophage protection) [2]: did not show activity
COc1nc2ccc(Br)cc2cc1[C@@H](c1ccccc1)[C@@](O)(CCN(C)C)c1cccc2ccccc12 [bedaquiline]	significant reduction of the bacterial signal			
C[C@]1(COc2ccc(N3CCC(Oc4ccc(OC(F)(F)F)cc4)CC3)cc2)Cn2cc([N+](=O)[O-])nc2O1 [delamanid]	significant reduction of the bacterial signal			
CCc1cc(C(N)=S)ccn1 [ethionamide]	significant reduction of the bacterial signal			
O=c1nc(N2CCN(CC3CCCCC3)CC2)sc2c([N+](=O)[O-])cc(C(F)(F)F)cc12 [macozinone]	significant reduction of the bacterial signal			
O=[N+]([O-])c1cn2c(n1)OC[C@@H](OCc1ccc(OC(F)(F)F)cc1)C2 [pretonamid]	significant reduction of the bacterial signal			
CO[C@H]1/C=C/O[C@@]2(C)Oc3c(C)c(O)c4c(O)c(c(/C=N/N5CCN(C)CC5)c(O)c4c3C2=O)NC(=O)/C(C)=C\C=C\[C@H](C)[C@H](O)[C@@H](C)[C@@H](O)[C@@H](C)[C@H](OC(C)=O)[C@@H]1C [rifampicin]	significant reduction of the bacterial signal			
CC(=O)NC[C@H]1CN(c2ccc(N3CCSCC3)c(F)c2)C(=O)O1 [sutezolid]	significant reduction of the bacterial signal			

From PMC8713996, “An anti-tuberculosis compound screen using a zebrafish infection model identifies an aspartyl-tRNA synthetase inhibitor” (Disease Models & Mechanisms, 2021)
